We go through one compound from US12280082B2, “Formulation for inhibiting virus replication” (priority 2020, dated 2025).

One data set concerns VeroE6 cells. Briefly: In vitro cytotoxicity (Hoechst 33342 / Sytox orange imaging). Type of data set: cell-based. How it is done: The cytotoxicity assay was done in a 96-well plate format in 3 wells for each sample. 1×10e4 VeroE6 cells were plated per well and incubated at 37° C. overnight for the monolayer formation. Next day, cells were incubated with 1 μl (5.5 mg/ml solution in 200 μl) A. paniculate at the concentration with final DMSO conc. being 0.5%. The control cells were incubated with 0.5% DMSO only. The cells without test substance was the control for water soluble compounds. 24 and 48 hours later, cells were stained with Hoechst 33342 and Sytox orange dye. Images were taken at 10×, 16 images per well, which covers 90% of well area using ImageXpress Microconfocal (Molecular Devices). Hoechst 33342 nucleic acid stain is a popular cell-permeant nuclear counterstain that emits blue fluorescence when bound to dsDNA. It stains all the live and dead cells. Sytox orange dye stains nucleic acids in cells with compromised membranes. This stain is an indicator of cell death. First, the software will count total number of cells in the Hoechst image. In the Sytox image, it will count, among Hoechst positive cells, how many cells are positive for sytox.

The test system of a further data set is SARS-COV2. Briefly: microbe, parasite or virus in culture. Type of data set: cell-based. To be noted: Severe acute respiratory syndrome coronavirus 2, Vero C1008, 48 h.

The structures appear in SMILES notation. Read-outs that look alike come from different tables or passages of the source.

The term IC50 denotes the point on the concentration scale where inhibition reaches its midpoint. In the case of `CCC(CC)COC(=O)[C@H](C)N[P@](=O)(OC[C@H]1O[C@@](C#N)(c2ccc3c(N)ncnn23)[C@H](O)[C@@H]1O)Oc1ccccc1` [Remdesivir], the results for the “percentage of cell viability” value in the data set on VeroE6 cells (24th hour of treatment) and in the data set on VeroE6 cells (48th hour of treatment) were 99.23% and 94.37%, respectively. Also, the IC50 is 150 nM in the data set on SARS-COV2 (read-out: IC50 for E gene) and 110 nM in the data set on SARS-COV2 (read-out: IC50 for N gene).
